For test [1], the system named is Cowpea Aphid (Aphis craccivora). Nature of the test: Cowpea aphid (Aphis craccivora) spray test on potted cowpea plants. The class given is in vivo. To be noted: in comparison with untreated controls, population reduction recorded after 24, 72 and 120 hours, read-out: mortality against cowpea aphid. The protocol:
B.1. Cowpea Aphid (Aphis craccivora)
The active compounds were formulated in 50:50 acetone:water. Potted cowpea plants colonized with 100-150 aphids of various stages were sprayed after the pest population has been recorded. Population reduction was recorded after 24, 72, and 120 hours.

For test [2], the system named is Green Peach Aphid (Myzus persicae). Briefly: Green peach aphid (Myzus persicae) leaf dip test on pepper plants. The class given is in vivo. To be noted: foliar, 120 h, in comparison with untreated controls, determined after 5 days, read-out: mortality against green-peach aphid. The protocol: B.2. Green Peach Aphid (Myzus persicae)
Pepper plants in the 2nd leaf-pair stage (variety ‘California Wonder’) were infested with approximately 40 laboratory-reared aphids by placing infested leaf sections on top of the test plants. The leaf sections were removed after 24 hours. The leaves of the intact plants were dipped into gradient solutions of the test compound. Aphid mortality on the treated plants, relative to mortality on check plants, was determined after 5 days.

Molecules are shown by their SMILES. Some results are limits rather than exact numbers.

Usually mortality stands for the percentage killed.

Consider `Cc1ccsc1C(Cc1ccncc1)NC1=NCCS1` (stereo not drawn) [C.I.9], for which the mortality at 300 ppm in test [1] is over 80%.

For `Brc1ccsc1C(Cc1ccncc1)NC1=NCCS1` (stereo not drawn) [C.I.10], the mortality at 300 ppm in test [2] is over 80%.

Regarding `c1ccc(CC(NC2=NCCS2)c2cccs2)nc1` (stereo not drawn) [C.I.12], the mortality at 300 ppm in test [1] is over 80%.

These data come from patent publication US20100041700A1, “Substituted 1-(Azolin-2-yl)-Amino-1,2-Heterocyclyl-Ethane Compounds For Combating Pests” (BASF SE, priority 2006, published 2010).
